BindingDB's records for doi:10.1021/jm0203130 (Merck Research Laboratories, 2002)

Biological target: Integrin alpha-IIb/beta-3 (Homo sapiens, UniProt P08514+P05106)
Test: Inhibition of integrin alphaIIb-beta3 in platelet aggregation assay

Chain of Integrin alpha-IIb/beta-3 (P05106 27-788 limits assumed): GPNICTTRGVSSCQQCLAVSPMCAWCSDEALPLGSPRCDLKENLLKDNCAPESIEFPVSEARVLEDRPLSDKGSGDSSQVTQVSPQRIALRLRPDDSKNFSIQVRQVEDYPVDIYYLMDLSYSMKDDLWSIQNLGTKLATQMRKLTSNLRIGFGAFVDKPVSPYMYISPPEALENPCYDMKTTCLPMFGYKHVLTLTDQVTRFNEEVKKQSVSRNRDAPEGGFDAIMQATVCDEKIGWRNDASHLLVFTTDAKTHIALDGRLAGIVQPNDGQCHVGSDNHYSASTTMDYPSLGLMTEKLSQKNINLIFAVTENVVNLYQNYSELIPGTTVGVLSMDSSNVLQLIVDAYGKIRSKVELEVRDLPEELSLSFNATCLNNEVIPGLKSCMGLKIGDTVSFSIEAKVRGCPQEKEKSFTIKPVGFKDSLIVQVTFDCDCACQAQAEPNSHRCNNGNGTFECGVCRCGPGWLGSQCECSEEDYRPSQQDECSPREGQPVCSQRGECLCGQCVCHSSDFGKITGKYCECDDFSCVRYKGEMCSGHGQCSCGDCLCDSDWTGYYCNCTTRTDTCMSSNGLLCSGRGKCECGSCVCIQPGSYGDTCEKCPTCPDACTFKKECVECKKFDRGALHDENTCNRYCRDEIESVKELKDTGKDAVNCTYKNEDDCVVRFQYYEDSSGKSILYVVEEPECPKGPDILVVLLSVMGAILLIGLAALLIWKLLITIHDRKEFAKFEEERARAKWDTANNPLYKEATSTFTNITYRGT
Chain of Integrin alpha-IIb/beta-3 (P08514 32-887 limits assumed): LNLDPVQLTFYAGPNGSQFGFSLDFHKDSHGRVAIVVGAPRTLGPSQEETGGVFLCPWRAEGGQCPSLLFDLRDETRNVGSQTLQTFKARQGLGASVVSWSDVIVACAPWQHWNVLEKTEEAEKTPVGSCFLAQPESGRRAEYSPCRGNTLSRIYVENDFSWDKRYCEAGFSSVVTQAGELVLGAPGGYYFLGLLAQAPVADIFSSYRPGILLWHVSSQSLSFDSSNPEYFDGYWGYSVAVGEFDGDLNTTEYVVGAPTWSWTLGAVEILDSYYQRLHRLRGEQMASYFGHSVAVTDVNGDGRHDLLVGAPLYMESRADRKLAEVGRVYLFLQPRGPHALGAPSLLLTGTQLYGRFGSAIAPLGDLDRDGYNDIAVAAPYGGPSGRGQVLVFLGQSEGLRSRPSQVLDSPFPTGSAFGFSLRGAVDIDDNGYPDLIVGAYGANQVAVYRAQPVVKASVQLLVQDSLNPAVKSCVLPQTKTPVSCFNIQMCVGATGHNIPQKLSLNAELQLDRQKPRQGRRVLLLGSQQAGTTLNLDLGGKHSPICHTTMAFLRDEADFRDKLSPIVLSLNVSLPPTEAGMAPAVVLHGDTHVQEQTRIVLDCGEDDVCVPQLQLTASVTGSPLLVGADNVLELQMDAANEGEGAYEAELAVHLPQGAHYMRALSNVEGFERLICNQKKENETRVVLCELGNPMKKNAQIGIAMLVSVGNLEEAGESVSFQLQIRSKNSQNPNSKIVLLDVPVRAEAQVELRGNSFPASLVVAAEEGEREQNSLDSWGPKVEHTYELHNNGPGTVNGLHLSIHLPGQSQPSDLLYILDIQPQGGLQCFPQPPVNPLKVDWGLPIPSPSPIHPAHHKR
Chain of Integrin alpha-IIb/beta-3 (P08514 891-1039 limits assumed): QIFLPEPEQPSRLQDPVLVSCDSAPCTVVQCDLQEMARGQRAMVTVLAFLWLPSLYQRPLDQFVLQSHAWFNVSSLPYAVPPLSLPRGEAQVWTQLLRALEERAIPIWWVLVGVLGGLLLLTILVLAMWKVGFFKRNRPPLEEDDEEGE

| IC50 [nM] | Compound |
| --- | --- |
| 1600 | Nc1cccc(CCc2ccc(C(=O)NC[C@H](NS(=O)(=O)c3ccc(I)cc3)C(=O)O)cc2)n1 [3-{4-[2-(6-Amino-pyridin-2-yl)-ethyl]-benzoylamino}-2-(4-iodo-benzenesulfonylamino)-propionic acid] |
| > 10000 | O=C(O)C[C@H](NC(=O)CNC(=O)CCCc1ccc2c(n1)NCCC2)c1cccnc1 [(S)-3-Pyridin-3-yl-3-[2-(4-5,6,7,8-tetrahydro-[1,8]naphthyridin-2-yl-butyrylamino)-acetylamino]-propionic acid] |
| > 10000 | CNc1cccc(CCOc2ccc3c(c2)CN(CC(F)(F)F)C(=O)[C@H](CC(=O)O)C3)n1 [[(S)-8-[2-(6-Methylamino-pyridin-2-yl)-ethoxy]-3-oxo-2-(2,2,2-trifluoro-ethyl)-2,3,4,5-tetrahydro-1H-benzo[c]azepin-4-yl]-acetic acid] |

More lines, now with the values behind:

| Compound | IC50 [nM] |
| --- | --- |
| O=C(NC[C@H](NS(=O)(=O)c1ccccc1)C(=O)O)c1ccc(CCc2ccc3c(n2)NCCC3)cc1 [2-Benzenesulfonylamino-3-{4-[2-(5,6,7,8-tetrahydro-[1,8]naphthyridin-2-yl)-ethyl]-benzoylamino}-propionic acid] | 260 |
| O=C(O)C[C@H](NC(=O)CN1CCC(CCc2ccc3c(n2)NCCC3)C1=O)c1cccnc1 (some centres not stated) [3-(2-{2-Oxo-3-[2-(5,6,7,8-tetrahydro-[1,8]naphthyridin-2-yl)-ethyl]-pyrrolidin-1-yl}-acetylamino)-3-pyridin-3-yl-propionic acid] | > 10000 |
| O=C(O)C[C@H](NC(=O)CN1CCC(CCc2ccc3c(n2)NCCC3)C1=O)c1cnc2ccccc2c1 (some centres not stated) [3-(2-{2-Oxo-3-[2-(5,6,7,8-tetrahydro-[1,8]naphthyridin-2-yl)-ethyl]-pyrrolidin-1-yl}-acetylamino)-3-quinolin-3-yl-propionic acid] | 776 |
| O=C(O)CCNC(=O)CNC(=O)CCCc1ccc2c(n1)NCCC2 [3-[2-(4-5,6,7,8-Tetrahydro-[1,8]naphthyridin-2-yl-butyrylamino)-acetylamino]-propionic acid] | > 10000 |
